A compilation of properties of binary mixtures (doi:10.1021/acs.jpcc.9b06000)

Experiment: xn = mol fraction of the nth substance listed
Settings: 101 kPa

FC1CC(F)(F)C(F)(F)C1(F)F (centres undefined) + CCCC[N+]1(C)CCCC1.FC(F)(F)C(F)(F)[P-](F)(F)(F)(C(F)(F)C(F)(F)F)C(F)(F)C(F)(F)F
Settings	electrical conductivity [S/m]	viscosity [mPa·s]
298.1 K, x2 = 0.035	0.402	–
298.1 K, x2 = 0.077	0.514	–
298.1 K, x2 = 0.122	0.605	–
298.1 K, x2 = 0.127	–	3.91
298.1 K, x2 = 0.18	0.678	–
298.1 K, x2 = 0.248	0.569	–
298.1 K, x2 = 0.334	0.489	–
298.1 K, x2 = 0.437	0.351	–
298.1 K, x2 = 0.656	–	54.8
298.1 K, x2 = 0.841	–	112.6
303 K, x2 = 0.035	0.428	–
303 K, x2 = 0.077	0.554	–
303 K, x2 = 0.08	–	2.72
303 K, x2 = 0.122	0.656	–
303 K, x2 = 0.248	0.638	–
303 K, x2 = 0.331	0.572	–
303 K, x2 = 0.338	–	11.23
303 K, x2 = 0.653	0.33	–
303 K, x2 = 0.659	–	45
308.1 K, x2 = 0.032	0.453	–
308.1 K, x2 = 0.08	–	2.37
308.1 K, x2 = 0.125	0.717	–
308.1 K, x2 = 0.183	0.812	–
308.1 K, x2 = 0.248	0.703	–
308.1 K, x2 = 0.331	0.641	–
308.1 K, x2 = 0.437	0.478	15.23
308.1 K, x2 = 0.656	0.38	37
308.1 K, x2 = 0.839	0.254	–
308.1 K, x2 = 0.844	–	68.1
313 K, x2 = 0	–	1.28
313 K, x2 = 0.035	0.482	–
313 K, x2 = 0.077	0.638	–
313 K, x2 = 0.122	0.772	–
313 K, x2 = 0.251	0.764	–
313 K, x2 = 0.334	0.714	–
313 K, x2 = 0.338	–	8.03
313 K, x2 = 0.437	0.54	–
313 K, x2 = 0.653	0.449	–
313 K, x2 = 0.655	–	28.8
313 K, x2 = 0.839	0.297	–
313 K, x2 = 0.841	–	54.5
318.1 K, x2 = 0.08	–	1.95
318.1 K, x2 = 0.125	0.83	–
318.1 K, x2 = 0.183	0.949	–
318.1 K, x2 = 0.248	0.826	–
318.1 K, x2 = 0.338	0.786	–
318.1 K, x2 = 0.431	0.609	–
318.1 K, x2 = 0.653	0.511	–
318.1 K, x2 = 0.84	–	44.8
323 K, x2 = 0	–	1.08
323 K, x2 = 0.039	0.543	–
323 K, x2 = 0.077	0.75	–
323 K, x2 = 0.122	0.906	–
323 K, x2 = 0.183	1.04	3.12
323 K, x2 = 0.248	0.899	–
323 K, x2 = 0.331	0.851	–
323 K, x2 = 0.335	–	6.61
323 K, x2 = 0.434	0.703	–
323 K, x2 = 0.653	0.591	–
323 K, x2 = 0.839	0.417	–
323 K, x2 = 0.84	–	36.8
